Measured values taken from ChEMBL document CHEMBL3870327, “Thioxylated cyclosporin A for studying protein-drug interactions” (Bioorg Med Chem Lett, 2016).
The source made the active and inactive calls. The calls are words filed in the database; no cut-off is given here. *1 amine or outer side, *2 acyl side, *3 side chain or, on linkers, in order; H or OH if unused. Where a SMILES comes first, the peptide text is derived from it. [ ]: non-standard residue; d: D form. X1 = CC(C)C[C@@H](C(=S)N[C@H](C(=O)[*:2])C(C)C)N(C)[*:1]; AlaΨ(CSNH)dAla = C[C@H](N[*:1])C(=S)N[C@H](C)C(=O)[*:2]; MeBmt = C/C=C/C[C@@H](C)[C@@H](O)[C@H](NC)C(=O)O; NMeL = CN[C@@H](CC(C)C)C(=O)O; NMeV = CN[C@H](C(=O)O)C(C)C; Abu = CC[C@H](N)C(=O)O; Sar = CNCC(=O)O

How the values were obtained:
[1] = biological target: T1, Peptidyl-prolyl cis-trans isomerase A (Homo sapiens, UniProt P62937); experiment: Binding affinity to recombinant His-tagged Cyp18 (unknown origin) expressed in Escherichia coli BL21(DE3) assessed as blue shift by UV absorbance method
Target sequence in this assay (P62937 whole entry, looked up): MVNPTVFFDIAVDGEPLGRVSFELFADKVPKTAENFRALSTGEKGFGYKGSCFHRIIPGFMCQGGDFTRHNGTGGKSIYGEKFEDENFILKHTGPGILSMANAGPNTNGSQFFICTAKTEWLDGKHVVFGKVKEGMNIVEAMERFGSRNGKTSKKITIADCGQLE

[2] = biological target: T1, Peptidyl-prolyl cis-trans isomerase A; experiment: Inhibition of recombinant His-tagged Cyp18 (unknown origin) expressed in Escherichia coli BL21(DE3) up to 1000 nM
Target sequence in this assay (P62937 whole entry, looked up): as above

[3] = biological target: T1, Peptidyl-prolyl cis-trans isomerase A; experiment: Binding affinity to recombinant His-tagged Cyp18 (unknown origin) expressed in Escherichia coli BL21(DE3) by fluorescence analysis
Target sequence in this assay (P62937 whole entry, looked up): as above

[4] = biological target: T1, Peptidyl-prolyl cis-trans isomerase A; experiment: Binding affinity to recombinant His-tagged Cyp18 (unknown origin) expressed in Escherichia coli BL21(DE3) assessed as inhibition of recombinant human His6-tagged calcineurin alpha phosphatase actvity using RII phosphopeptide as substrate by measuring amount of free phosphate at 10 uM preincubated for 20 mins followed by substrate addition measured after 30 mins in presence of human calmodulin by malachite green dye-based spectrophotometry relative to control
Target sequence in this assay (P62937 whole entry, looked up): as above

[5] = biological target: T1, Peptidyl-prolyl cis-trans isomerase A; experiment: Binding affinity to Cyp18 (unknown origin) assessed as association rate constant of fast phase by stopped flow method
Target sequence in this assay (P62937 whole entry, looked up): as above

[6] = biological target: T1, Peptidyl-prolyl cis-trans isomerase A; experiment: Binding affinity to Cyp18 (unknown origin) by fluorescence assay
Target sequence in this assay (P62937 whole entry): as the sequence (P62937 whole entry, looked up) above

[7] = biological target: T1, Peptidyl-prolyl cis-trans isomerase A; experiment: Binding affinity to recombinant His-tagged Cyp18 (unknown origin) expressed in Escherichia coli BL21(DE3) assessed as dissociation rate constant in presence of 20-fold excess of cyclosporin A by fluorescence assay
Target sequence in this assay (P62937 whole entry, looked up): as above

| Activity [1] | inhibition [2] | Activity [3] | Activity [4] | K [5] [×10⁶ /M/s] | Kd [6] [nM] | K [7] [×10⁻² /s] | Structure (SMILES) |
| --- | --- | --- | --- | --- | --- | --- | --- |
| Active | Active | Active | Active |  |  |  | C/C=C/C[C@@H](C)[C@@H](O)[C@H]1C(=O)N[C@@H](CC)C(=O)N(C)CC(=O)N(C)[C@@H](CC(C)C)C(=S)N[C@@H](C(C)C)C(=O)N(C)[C@@H](CC(C)C)C(=O)N[C@@H](C)C(=O)N[C@H](C)C(=O)N(C)[C@@H](CC(C)C)C(=O)N(C)[C@@H](CC(C)C)C(=O)N(C)[C@@H](C(C)C)C(=O)N1C |
| Active | Active | Active | Active | 8.34 | 8.2 | 6.32 | C/C=C/C[C@@H](C)[C@@H](O)[C@H]1C(=O)N[C@@H](CC)C(=O)N(C)CC(=O)N(C)[C@@H](CC(C)C)C(=O)N[C@@H](C(C)C)C(=O)N(C)[C@@H](CC(C)C)C(=O)N[C@@H](C)C(=S)N[C@H](C)C(=O)N(C)[C@@H](CC(C)C)C(=O)N(C)[C@@H](CC(C)C)C(=O)N(C)[C@@H](C(C)C)C(=O)N1C (HELM PEPTIDE1{[Abu].[Sar].[meL].V.[meL].[C[C@H](N[*:1])C(=S)N[C@H](C)C(=O)[*:2]].[meL].[meL].[meV].[C/C=C/C[C@@H](C)[C@@H](O)[C@@H](C(=O)[*:2])N(C)[*:1]]}$PEPTIDE1,PEPTIDE1,1:R1-10:R2$$$V2.0) |
| Active | Active | Active | Active |  |  |  | C/C=C/C[C@@H](C)[C@@H](O)[C@H]1C(=O)N[C@@H](CC)C(=O)N(C)CC(=O)N(C)[C@@H](CC(C)C)C(=S)N[C@@H](C(C)C)C(=O)N(C)[C@@H](CC(C)C)C(=O)N[C@@H](C)C(=S)N[C@H](C)C(=O)N(C)[C@@H](CC(C)C)C(=O)N(C)[C@@H](CC(C)C)C(=O)N(C)[C@@H](C(C)C)C(=O)N1C (cyclo([Abu][Sar][X1][NMeL][AlaΨ(CSNH)dAla][NMeL][NMeL][NMeV][MeBmt])) |
